Measurements from BindingDB's records for doi:10.1074/jbc.M511827200 (Merck Frosst Center For Therapeutic Research, 2006).

Key:
Test in all cases: PTP1B and TCPTP Inhibition Assay
Settings in all cases: pH 6.3; 22 °C
[1] = biological target: T1, Tyrosine-protein phosphatase non-receptor type 2 (Homo sapiens, UniProt P17706)
T1 sequence (P17706 whole entry): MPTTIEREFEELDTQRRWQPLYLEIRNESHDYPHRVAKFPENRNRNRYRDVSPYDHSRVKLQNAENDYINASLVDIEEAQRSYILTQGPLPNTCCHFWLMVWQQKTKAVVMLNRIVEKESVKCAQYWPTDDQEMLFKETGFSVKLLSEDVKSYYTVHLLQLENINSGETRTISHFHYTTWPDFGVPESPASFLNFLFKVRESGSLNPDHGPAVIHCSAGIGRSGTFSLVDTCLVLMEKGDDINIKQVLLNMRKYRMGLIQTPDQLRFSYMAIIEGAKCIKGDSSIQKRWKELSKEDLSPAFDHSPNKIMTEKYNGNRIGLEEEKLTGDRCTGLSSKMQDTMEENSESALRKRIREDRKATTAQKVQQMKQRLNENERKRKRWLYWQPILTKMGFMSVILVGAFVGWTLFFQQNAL

[2] = biological target: T2, Tyrosine-protein phosphatase non-receptor type 1 [1-298] (Homo sapiens, UniProt P18031)
T2 construct: 1-298
T2 sequence (P18031 whole entry): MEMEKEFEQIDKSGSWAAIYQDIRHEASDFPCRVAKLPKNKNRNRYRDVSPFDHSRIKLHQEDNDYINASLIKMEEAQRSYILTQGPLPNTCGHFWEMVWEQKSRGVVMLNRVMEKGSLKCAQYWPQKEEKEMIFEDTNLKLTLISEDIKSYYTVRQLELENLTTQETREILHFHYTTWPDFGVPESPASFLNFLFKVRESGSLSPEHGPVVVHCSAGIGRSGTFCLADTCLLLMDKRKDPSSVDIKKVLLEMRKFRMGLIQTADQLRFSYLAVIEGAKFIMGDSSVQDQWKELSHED

[3] = biological target: Tyrosine-protein phosphatase non-receptor type 2 [V121L] (Homo sapiens, UniProt P17706, V121L)
Sequence of Tyrosine-protein phosphatase non-receptor type 2 [V121L] (P17706 as listed by the source V121L): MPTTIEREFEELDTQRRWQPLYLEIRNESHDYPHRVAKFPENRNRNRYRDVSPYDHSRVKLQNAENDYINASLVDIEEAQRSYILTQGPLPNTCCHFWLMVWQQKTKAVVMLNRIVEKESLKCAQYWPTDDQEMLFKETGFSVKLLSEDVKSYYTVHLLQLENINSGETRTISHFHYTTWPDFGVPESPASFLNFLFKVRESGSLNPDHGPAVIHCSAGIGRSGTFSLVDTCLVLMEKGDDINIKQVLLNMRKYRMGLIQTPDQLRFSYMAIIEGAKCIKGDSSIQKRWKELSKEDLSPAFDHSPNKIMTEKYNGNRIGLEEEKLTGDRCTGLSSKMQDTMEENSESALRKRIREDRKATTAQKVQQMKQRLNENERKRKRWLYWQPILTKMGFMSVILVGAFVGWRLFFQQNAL

[4] = biological target: Tyrosine-protein phosphatase non-receptor type 1 [L119V] (Homo sapiens, UniProt P18031, L119V)
Sequence of Tyrosine-protein phosphatase non-receptor type 1 [L119V] (P18031 1-298 L119V): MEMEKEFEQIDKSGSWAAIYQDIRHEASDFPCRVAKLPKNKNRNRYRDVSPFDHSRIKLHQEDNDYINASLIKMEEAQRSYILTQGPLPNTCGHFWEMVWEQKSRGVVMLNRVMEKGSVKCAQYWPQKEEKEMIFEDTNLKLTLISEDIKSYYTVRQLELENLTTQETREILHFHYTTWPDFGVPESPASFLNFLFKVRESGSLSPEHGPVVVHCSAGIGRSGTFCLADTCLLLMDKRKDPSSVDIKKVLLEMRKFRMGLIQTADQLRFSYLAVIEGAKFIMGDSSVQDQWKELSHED

O=P(O)(O)C(F)(F)c1ccc(CC(C/C=C/c2ccccc2)(c2ccccc2)n2nnc3ccccc32)cc1 (stereo not drawn) [({4-[(4E)-2-(1H-1,2,3-benzotriazol-1-yl)-2,5-diphenylpent-4-en-1-yl]phenyl}difluoromethyl)phosphonic acid]
IC50 [1]: 95 nM | IC50 [2]: 109 nM

COC(=O)c1ccc([C@@](C/C=C/c2ccccc2)(Cc2ccc(C(F)(F)P(=O)(O)O)cc2)n2nnc3ccccc32)cc1 [({4-[(4E)-2-(1H-1,2,3-benzotriazol-1-yl)-2-[4-(methoxycarbonyl)phenyl]-5-phenylpent-4-en-1-yl]phenyl}difluoromethyl)phosphonic acid]
IC50 [1]: 87 nM | IC50 [3]: 24 nM

Cc1noc(-c2ccc(C(C/C=C/c3ccccc3)(Cc3ccc(C(F)(F)P(=O)(O)O)cc3)C(=O)c3ccc(F)cc3)cc2)n1 (stereo not drawn) [[difluoro({4-[3-(4-fluorophenyl)-2-[4-(3-methyl-1,2,4-oxadiazol-5-yl)phenyl]-3-oxo-2-[(2E)-3-phenylprop-2-en-1-yl]propyl]phenyl})methyl]phosphonic acid]
IC50 [1]: 1600 nM | IC50 [3]: 138 nM | IC50 [4]: 1900 nM | IC50 [2]: 163 nM
